How the values were obtained:
[1] = Chemical stability of compound incubated for 90 days by HPLC analysis; format: physicochemical; conditions: time 90 day; read-out: Stabilty
[2] = target: T1, Receptor-type tyrosine-protein kinase FLT3 (Homo sapiens, UniProt P36888); assay: Inhibition of FLT3 (unknown origin) incubated for 30 mins in presence of ATP by mobility shift assay
T1 sequence (P36888 whole entry): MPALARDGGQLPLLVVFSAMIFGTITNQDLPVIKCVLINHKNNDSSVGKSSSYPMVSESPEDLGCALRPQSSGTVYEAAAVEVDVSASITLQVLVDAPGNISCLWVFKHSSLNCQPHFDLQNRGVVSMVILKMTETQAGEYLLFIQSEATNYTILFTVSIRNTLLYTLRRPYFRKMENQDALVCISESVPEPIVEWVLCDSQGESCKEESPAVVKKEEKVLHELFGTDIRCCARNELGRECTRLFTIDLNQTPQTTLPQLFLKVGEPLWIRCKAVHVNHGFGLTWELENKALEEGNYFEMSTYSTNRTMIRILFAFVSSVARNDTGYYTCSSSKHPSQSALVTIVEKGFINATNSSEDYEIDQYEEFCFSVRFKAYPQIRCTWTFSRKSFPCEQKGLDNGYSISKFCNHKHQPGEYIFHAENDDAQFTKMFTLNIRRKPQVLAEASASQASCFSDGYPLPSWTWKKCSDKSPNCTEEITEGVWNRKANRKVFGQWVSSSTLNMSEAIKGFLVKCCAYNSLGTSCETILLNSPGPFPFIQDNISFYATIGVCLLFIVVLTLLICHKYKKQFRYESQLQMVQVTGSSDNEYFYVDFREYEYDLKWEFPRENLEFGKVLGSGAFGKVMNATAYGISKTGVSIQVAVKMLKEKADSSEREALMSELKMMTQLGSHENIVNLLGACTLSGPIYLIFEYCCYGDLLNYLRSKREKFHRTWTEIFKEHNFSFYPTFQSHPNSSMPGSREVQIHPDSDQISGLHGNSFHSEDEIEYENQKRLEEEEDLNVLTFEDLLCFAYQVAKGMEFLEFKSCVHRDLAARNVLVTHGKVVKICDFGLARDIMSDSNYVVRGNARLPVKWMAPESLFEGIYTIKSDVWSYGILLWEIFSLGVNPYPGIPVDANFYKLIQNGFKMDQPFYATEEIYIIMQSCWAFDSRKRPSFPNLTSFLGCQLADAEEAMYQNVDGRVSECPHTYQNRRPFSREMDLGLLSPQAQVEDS

[3] = test system: MV4-11; assay: Antiproliferative activity against human MV4-11 cells incubated for 72 hrs by Cell Counting Kit-8 assay; format: functional, cell-based; conditions: MV4-11, 72 h
[4] = test system: MOLM-13; assay: Antiproliferative activity against human MOLM-13 cells incubated for 72 hrs by Cell Counting Kit-8 assay; format: functional, cell-based; conditions: MOLM-13, 72 h
[5] = test system: MOLM-13; assay: Antiproliferative activity against human quizartinib-resistant MOLM-13 cells at 333 nM incubated for 72 hrs by CCK8 assay relative to control; format: functional
[6] = test system: MOLM-13; assay: Antiproliferative activity against human sunitinib-resistant MOLM-13 cells at 1 nM incubated for 72 hrs by CCK8 assay relative to control; format: functional
[7] = test system: MOLM-13; assay: Antiproliferative activity against human quizartinib-resistant MOLM-13 cells at 1000 nM incubated for 72 hrs by CCK8 assay relative to control; format: functional
[8] = test system: MOLM-13; assay: Antiproliferative activity against human sunitinib-resistant MOLM-13 cells at 111 nM incubated for 72 hrs by CCK8 assay relative to control; format: functional
[9] = test system: MOLM-13; assay: Antiproliferative activity against human sunitinib-resistant MOLM-13 cells at 37 nM incubated for 72 hrs by CCK8 assay relative to control; format: functional
[10] = test system: MOLM-13; assay: Antiproliferative activity against human quizartinib-resistant MOLM-13 cells at 1 nM incubated for 72 hrs by CCK8 assay relative to control; format: functional
[11] = test system: MOLM-13; assay: Antiproliferative activity against human quizartinib-resistant MOLM-13 cells at 4 nM incubated for 72 hrs by CCK8 assay relative to control; format: functional
[12] = test system: MOLM-13; assay: Antiproliferative activity against human quizartinib-resistant MOLM-13 cells at 12 nM incubated for 72 hrs by CCK8 assay relative to control; format: functional
[13] = test system: MOLM-13; assay: Antiproliferative activity against human quizartinib-resistant MOLM-13 cells at 111 nM incubated for 72 hrs by CCK8 assay relative to control; format: functional
[14] = test system: MOLM-13; assay: Antiproliferative activity against human sunitinib-resistant MOLM-13 cells at 1000 nM incubated for 72 hrs by CCK8 assay relative to control; format: functional
[15] = test system: MOLM-13; assay: Antiproliferative activity against human sunitinib-resistant MOLM-13 cells at 4 nM incubated for 72 hrs by CCK8 assay relative to control; format: functional
[16] = test system: MOLM-13; assay: Antiproliferative activity against human sunitinib-resistant MOLM-13 cells at 12 nM incubated for 72 hrs by CCK8 assay relative to control; format: functional
[17] = test system: MOLM-13; assay: Antiproliferative activity against human sunitinib-resistant MOLM-13 cells at 333 nM incubated for 72 hrs by CCK8 assay relative to control; format: functional
[18] = test system: MOLM-13; assay: Antiproliferative activity against human quizartinib-resistant MOLM-13 cells at 37 nM incubated for 72 hrs by CCK8 assay relative to control; format: functional

| SMILES | IC50 [2] [nM] | IC50 [3] [nM] | IC50 [4] [nM] | further results |
| --- | --- | --- | --- | --- |
| Cc1c(NC(=O)[C@@H]2CCCN2)c[nH]c1/C=C1\C(=O)Nc2ccc(F)cc21 | 2.5 | 37.2 | 35.9 | remaining at 2160 h [1]: 99.1% |
| CCN(CC)CCC(=O)Nc1c[nH]c(/C=C2\C(=O)Nc3ccc(F)cc32)c1C | 2 | 30.3 | 54.3 | – |
| Cc1c(NC(=O)CCN(C)C)c[nH]c1/C=C1\C(=O)Nc2ccc(F)cc21 | 1.7 | 32.4 | 57 | – |
| Cc1c(NC(=O)CCNC(C)(C)C)c[nH]c1/C=C1\C(=O)Nc2ccc(F)cc21 | 1.8 | 44.8 | 58.2 | – |
| Cc1c(NC(=O)CCN2CCCC2)c[nH]c1/C=C1\C(=O)Nc2ccc(Cl)cc21 | – | 20.9 | 64.5 | – |
| Cc1c(NC(=O)CN(C)C)c[nH]c1/C=C1\C(=O)Nc2ccc(F)cc21 | 2 | 78.6 | 36 | – |
| Cc1c(NC(=O)C2CCCCN2)c[nH]c1/C=C1\C(=O)Nc2ccc(F)cc21 (stereo unspecified) | 2.4 | 54.4 | 59.2 | – |
| Cc1c(NC(=O)CCN2CCOCC2)c[nH]c1/C=C1\C(=O)Nc2ccc(F)cc21 | – | 133 | 173 | – |
| Cc1c(NC(=O)CN2CCCC2)c[nH]c1/C=C1\C(=O)Nc2ccc(F)cc21 | 1.4 | 77 | 61.9 | – |
| Cc1c(NC(=O)CN2CCN(C)CC2)c[nH]c1/C=C1\C(=O)Nc2ccc(F)cc21 | 2.7 | 51.8 | 48.4 | – |
| Cc1c(NC(=O)[C@H]2CCCN2)c[nH]c1/C=C1\C(=O)Nc2ccc(F)cc21 | – | 69.9 | 70.8 | – |
| Cc1c(NC(=O)CCN2CCCC2)c[nH]c1/C=C1\C(=O)Nc2ccc(Br)cc21 | – | 58.6 | 71.5 | – |
| Cc1c(NC(=O)CCN2CCN(C)CC2)c[nH]c1/C=C1\C(=O)Nc2ccc(F)cc21 | 3 | 41.3 | 47.5 | – |
| Cc1c(/C=C2\C(=O)Nc3ccc(F)cc32)[nH]c(Cl)c1NC(=O)[C@@H]1CCCN1 | – | 50.7 | – | remaining at 2160 h [1]: 95.4% |
| Cc1c(NC(=O)C2CCNCC2)c[nH]c1/C=C1\C(=O)Nc2ccc(F)cc21 | – | 177 | 143 | – |
| Cc1c(NC(=O)CC2CCCN2)c[nH]c1/C=C1\C(=O)Nc2ccc(F)cc21 (stereo unspecified) | 2.7 | 50 | 35.9 | – |
| Cc1c(NC(=O)CN2CCCCC2)c[nH]c1/C=C1\C(=O)Nc2ccc(F)cc21 | – | 252 | > 1000 | – |
| CC(C)(C)c1cc(NC(=O)Nc2ccc(-c3cn4c(n3)sc3cc(OCCN5CCOCC5)ccc34)cc2)no1 [QUIZARTINIB] | – | – | – | Activity [5]: -4.1%; Activity [6]: 1.4%; Activity [7]: 1.3%; Activity [8]: -1.5%; Activity [9]: 0.2%; Activity [10]: 5.2%; Activity [11]: -0.4%; Activity [12]: 2.9%; Activity [13]: -5.8%; Activity [14]: 10.9%; Activity [15]: -0.9%; Activity [16]: 2.8%; Activity [17]: 5.7%; Activity [18]: -0.8% |
| Cc1[nH]c(/C=C2\C(=O)Nc3ccc(F)cc32)c(C)c1NC(=O)[C@@H]1CCCN1 | – | 40.9 | – | remaining at 2160 h [1]: 80.8% |
| Cc1c(NC(=O)CCN2CCCCC2)c[nH]c1/C=C1\C(=O)Nc2ccc(F)cc21 | 1.3 | 44.2 | 64.2 | – |
| CCCNCCC(=O)Nc1c[nH]c(/C=C2\C(=O)Nc3ccc(F)cc32)c1C | 1.7 | 34.7 | 57.4 | – |
| Cc1c(/C=C2\C(=O)Nc3ccc(F)cc32)[nH]c(Br)c1NC(=O)[C@@H]1CCCN1 | – | 61.5 | – | remaining at 2160 h [1]: 96.6% |
| Cc1c(NC(=O)CCNC2CCCC2)c[nH]c1/C=C1\C(=O)Nc2ccc(F)cc21 | 0.6 | 29.2 | 44.3 | – |
| CCNCCC(=O)Nc1c[nH]c(/C=C2\C(=O)Nc3ccc(F)cc32)c1C | 2.5 | 34.5 | 51.2 | – |
| COc1ccc2c(c1)/C(=C/c1[nH]cc(NC(=O)CCN3CCCC3)c1C)C(=O)N2 | – | 28.9 | 55.7 | – |
| Cc1c(NC(=O)CNC2CCCC2)c[nH]c1/C=C1\C(=O)Nc2ccc(F)cc21 | – | 125 | 158 | – |
| CCN(CC)CC(=O)Nc1c[nH]c(/C=C2\C(=O)Nc3ccc(F)cc32)c1C | – | 81.7 | 176 | – |

Source: ChEMBL document CHEMBL4823252 (J Med Chem, 2021)
